Source: PubChem BioAssay (NCI)
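Assay format: 96-well plates, 48-hour exposure. At the TGI there is no net growth.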

How the values were obtained:
Experiment in all cases: inhibition of tumour cell growth, NCI panel, 48 h
HCT-15 colon = tested on: HCT-15 colon
KM12 colon = tested on: KM12 colon
U251 CNS = tested on: U251 CNS
SK-OV-3 ovarian = tested on: SK-OV-3 ovarian
SK-MEL-5 melanoma = tested on: SK-MEL-5 melanoma
SF-295 CNS = tested on: SF-295 CNS
HL-60(TB) leukemia = tested on: HL-60(TB) leukemia
MALME-3M melanoma = tested on: MALME-3M melanoma
TK-10 renal = tested on: TK-10 renal
SK-MEL-28 melanoma = tested on: SK-MEL-28 melanoma
DLD-1 colon = tested on: DLD-1 colon
SF-539 CNS = tested on: SF-539 CNS
CCRF-CEM leukemia = tested on: CCRF-CEM leukemia
RXF 393 renal = tested on: RXF 393 renal
XF 498 CNS = tested on: XF 498 CNS
ACHN renal = tested on: ACHN renal
HT29 colon = tested on: HT29 colon
OVCAR-8 ovarian = tested on: OVCAR-8 ovarian
SNB-78 CNS = tested on: SNB-78 CNS
A549 NSCLC = tested on: A549 NSCLC
SF-268 CNS = tested on: SF-268 CNS
UACC-257 melanoma = tested on: UACC-257 melanoma
LOX IMVI melanoma = tested on: LOX IMVI melanoma
SN12C renal = tested on: SN12C renal
MOLT-4 leukemia = tested on: MOLT-4 leukemia
NCI-H226 lung = tested on: NCI-H226 lung
OVCAR-3 ovarian = tested on: OVCAR-3 ovarian
HCT-116 colon = tested on: HCT-116 colon
SW-620 colon = tested on: SW-620 colon
SNB-75 CNS = tested on: SNB-75 CNS
NCI-H522 lung = tested on: NCI-H522 lung
UO-31 renal = tested on: UO-31 renal
SK-MEL-2 melanoma = tested on: SK-MEL-2 melanoma
UACC-62 melanoma = tested on: UACC-62 melanoma
DMS 273 small cell lung = tested on: DMS 273 small cell lung
OVCAR-4 ovarian = tested on: OVCAR-4 ovarian
K-562 leukemia = tested on: K-562 leukemia
NCI-H460 lung = tested on: NCI-H460 lung
M19-MEL melanoma = tested on: M19-MEL melanoma
LXFL 529 NSCLC = tested on: LXFL 529 NSCLC
DMS 114 small cell lung = tested on: DMS 114 small cell lung
SNB-19 CNS = tested on: SNB-19 CNS
OVCAR-5 ovarian = tested on: OVCAR-5 ovarian
COLO 205 colon = tested on: COLO 205 colon
786-0 renal = tested on: 786-0 renal
RPMI-8226 leukemia = tested on: RPMI-8226 leukemia
SR leukemia = tested on: SR leukemia
CAKI-1 renal = tested on: CAKI-1 renal
HOP-92 NSCLC = tested on: HOP-92 NSCLC
A498 renal = tested on: A498 renal
KM20L2 colon = tested on: KM20L2 colon
M14 melanoma = tested on: M14 melanoma
IGROV1 ovarian = tested on: IGROV1 ovarian
NCI-H23 lung = tested on: NCI-H23 lung
RXF-631 renal = tested on: RXF-631 renal
HCC-2998 colon = tested on: HCC-2998 colon
HOP-18 NSCLC = tested on: HOP-18 NSCLC

Work on `OCc1ccccc1C1CSCSC1` yielded a TGI (HCT-15 colon) of over 100 µM, a TGI (KM12 colon) of over 100 µM and a TGI (U251 CNS) of over 100 µM. It also gave a TGI (SK-OV-3 ovarian) of over 100 µM, a TGI (SK-MEL-5 melanoma) of over 100 µM and a TGI (SF-295 CNS) of over 100 µM. It also gave a TGI (HL-60(TB) leukemia) of over 100 µM, a TGI (MALME-3M melanoma) of over 100 µM and a TGI (TK-10 renal) of over 100 µM. For the same compound, the TGI (SK-MEL-28 melanoma) was over 100 µM, the TGI (DLD-1 colon) was over 100 µM and the TGI (SF-539 CNS) was over 100 µM. For the same compound, the TGI (CCRF-CEM leukemia) was over 100 µM, the TGI (RXF 393 renal) was over 100 µM and the TGI (XF 498 CNS) was over 100 µM. The TGI (ACHN renal) was over 100 µM, the TGI (HT29 colon) was over 100 µM and the TGI (OVCAR-8 ovarian) was over 100 µM. For the same compound, the TGI (SNB-78 CNS) was over 100 µM, the TGI (A549 NSCLC) was over 100 µM and the TGI (SF-268 CNS) was over 100 µM. The TGI (UACC-257 melanoma) was over 100 µM, the TGI (LOX IMVI melanoma) was over 100 µM and the TGI (SN12C renal) was over 100 µM. The TGI (MOLT-4 leukemia) was over 100 µM, the TGI (NCI-H226 lung) was over 100 µM and the TGI (OVCAR-3 ovarian) was over 100 µM. The TGI (HCT-116 colon) was over 100 µM, the TGI (SW-620 colon) was over 100 µM and the TGI (SNB-75 CNS) was over 100 µM. It also gave a TGI (NCI-H522 lung) of over 100 µM, a TGI (UO-31 renal) of over 100 µM and a TGI (SK-MEL-2 melanoma) of over 100 µM. It also gave a TGI (UACC-62 melanoma) of over 100 µM, a TGI (DMS 273 small cell lung) of over 100 µM and a TGI (OVCAR-4 ovarian) of over 100 µM. The TGI (K-562 leukemia) was over 100 µM, the TGI (NCI-H460 lung) was over 100 µM and the TGI (M19-MEL melanoma) was over 100 µM. The TGI (LXFL 529 NSCLC) was over 100 µM and the TGI (DMS 114 small cell lung) was over 100 µM.
With `COc1cc2c(cc1O)[C@H](Cc1ccc(Oc3cc(C[C@H]4c5cc(OC)c(OC)cc5CCN4C)ccc3OC)cc1)NCC2` the TGI (SNB-19 CNS) was 31.9 µM, the TGI (OVCAR-5 ovarian) was 35 µM and the TGI (HCT-15 colon) was 21.4 µM. For the same compound, the TGI (KM12 colon) was 25.7 µM, the TGI (U251 CNS) was 24.3 µM and the TGI (COLO 205 colon) was 49.5 µM. It also gave a TGI (786-0 renal) of 25.2 µM, a TGI (SF-295 CNS) of 24.2 µM and a TGI (HL-60(TB) leukemia) of 34.6 µM. For the same compound, the TGI (MALME-3M melanoma) was 39.6 µM, the TGI (SK-MEL-28 melanoma) was 30.8 µM and the TGI (RPMI-8226 leukemia) was 46.8 µM. For the same compound, the TGI (SF-539 CNS) was 22.8 µM, the TGI (CCRF-CEM leukemia) was 37 µM and the TGI (RXF 393 renal) was 18.3 µM. It also gave a TGI (XF 498 CNS) of 24 µM, a TGI (ACHN renal) of 23.6 µM and a TGI (SR leukemia) of 30.1 µM. The TGI (HT29 colon) was 19.4 µM, the TGI (CAKI-1 renal) was 19.8 µM and the TGI (HOP-92 NSCLC) was 20.1 µM. It also gave a TGI (A498 renal) of 28.3 µM, a TGI (OVCAR-8 ovarian) of 27.8 µM and a TGI (KM20L2 colon) of 22.7 µM. It also gave a TGI (M14 melanoma) of 3.56 µM, a TGI (A549 NSCLC) of 32.8 µM and a TGI (SF-268 CNS) of 23.7 µM. The TGI (UACC-257 melanoma) was 29.7 µM, the TGI (IGROV1 ovarian) was 33 µM and the TGI (LOX IMVI melanoma) was 22.4 µM. The TGI (SN12C renal) was 31.1 µM, the TGI (MOLT-4 leukemia) was 25.5 µM and the TGI (NCI-H226 lung) was 26.2 µM. The TGI (OVCAR-3 ovarian) was 22.4 µM, the TGI (HCT-116 colon) was 20.9 µM and the TGI (NCI-H23 lung) was 24.2 µM. For the same compound, the TGI (SW-620 colon) was 25.5 µM, the TGI (RXF-631 renal) was 32 µM and the TGI (SNB-75 CNS) was 21.8 µM. The TGI (UO-31 renal) was 21.2 µM, the TGI (SK-MEL-2 melanoma) was 32.1 µM and the TGI (UACC-62 melanoma) was 32.1 µM. The TGI (DMS 273 small cell lung) was 43.2 µM, the TGI (OVCAR-4 ovarian) was 27.1 µM and the TGI (K-562 leukemia) was 19.1 µM. The TGI (NCI-H460 lung) was 27.7 µM, the TGI (HCC-2998 colon) was 18.7 µM and the TGI (M19-MEL melanoma) was 49.2 µM. It also gave a TGI (HOP-18 NSCLC) of 32.7 µM, a TGI (LXFL 529 NSCLC) of 28.2 µM and a TGI (DMS 114 small cell lung) of 40.5 µM.
